# Read-outs that look alike come from different tables or passages of the source.
# Key:
# [1] = tested on: vaginal epithelium; assay type: in vivo, rat
# Experimental: FIG. 4 represents H&E stained cross-sections of rat vagina after 5 days of intravaginal treatment with 100 nM betacellulin in 2% carbomer vehicle.
# These histologic changes are the hallmark of a vaginal estrogenic response. Tables 2 and 3 detail the studies performed with mersalyl and betacellulin. The body of the table indicates the number of positive histological changes over the number of samples evaluated.
# Table 4 includes the studies performed with the PHD/FIH non-specific inhibitor DMOG, whereas Table 5 is the studies performed with 2,4-DPD.
# Table 6 includes the studies performed with the FIH specific inhibitor 3,4-dihydroxybenzoate (3,4-DHB), whereas Table 7 outlines the studies performed with N-oxalyl-D-alanine (NODA).
# [2] = tested on: vaginal epithelium; assay type: in vivo, rat; conditions: intravaginal; 50 nM 17β-estradiol, 10 nM recombinant mouse betacellulin, 1 μM Mersalyl; 2% carbomer vehicle
# [3] = tested on: HIF1α transcription; conditions: cited from earlier work
smiles,measurement,setting,value
"COC(CNC(=O)c1ccccc1OCC(=O)O)[CH2][Hg][OH] (centres unmarked) [Mersalyl, mersalyl]",number of positive histological changes over the number of samples evaluated,"[1]; Mersalyl dose 0.1 μM intravaginal, Study 2",2/4
same,number of positive histological changes over the number of samples evaluated,"[1]; Mersalyl dose 0.1 μM intravaginal, Study 3",4/4
same,number of positive histological changes over the number of samples evaluated,"[1]; Mersalyl dose 0.1 μM intravaginal, Study 4",4/4
same,number of positive histological changes over the number of samples evaluated,"[1]; Mersalyl dose 1 μM intravaginal, Study 1",3/3
same,number of positive histological changes over the number of samples evaluated,"[1]; Mersalyl dose 1 μM intravaginal, Study 2",4/4/
same,number of positive histological changes over the number of samples evaluated,"[1]; Mersalyl dose 1 μM intravaginal, Study 3",2/3
same,number of positive histological changes over the number of samples evaluated,"[1]; Mersalyl dose 1 μM intravaginal, Study 4",4/4/
same,number of positive histological changes over the number of samples evaluated,"[1]; Mersalyl dose 10 μM intravaginal, Study 1",0/3
same,number of positive histological changes over the number of samples evaluated,"[1]; Mersalyl dose 10 μM intravaginal, Study 2",0/4
same,number of positive histological changes over the number of samples evaluated,"[1]; Mersalyl dose 100 μM intravaginal, Study 1",0/3
same,"effect on the rat vaginal epithelium, in words",[1]; ovariectomized rats,expansion of the vaginal epithelium in a manner similar to treatment with 17β-estradiol
same,histological change of the vaginal epithelial layer compared to vehicle,"[1]; rats, intravaginal dosing, Example 2",clear thickening and differentiation of the vaginal epithelial layer
same,"histology of rat vagina (H&E stained cross-sections) compared to vehicle, FIG. 1",[2],positive effect
same,upregulation of HIF1α transcription,[3],upregulate HIF1α transcription
